Experiments:
U87MG cells [1] = test: Loss of mitochondrial potential; type: cell-based, human; conditions: 30 μM, 24 h, JC-1
[2] = tested on: HeLa, HT29, A549, HCT 116, and HCT 15 cell lines; test: Average growth inhibition over five cell lines; type: cell-based; conditions: Homo sapiens, read-out: average IC50 for the five cell lines, HeLa, HT-29, A549, HCT 116, HCT 15; for comparative purposes
CYP2D6 = CYP2D6 (Homo sapiens, UniProt P10635); test: CYP450 inhibition, CYP2D6; type: biochemical; conditions: recombinant CYP2D6 (Supersomes, Gentest), pH 7.4
Sequence of CYP2D6 (P10635 whole entry): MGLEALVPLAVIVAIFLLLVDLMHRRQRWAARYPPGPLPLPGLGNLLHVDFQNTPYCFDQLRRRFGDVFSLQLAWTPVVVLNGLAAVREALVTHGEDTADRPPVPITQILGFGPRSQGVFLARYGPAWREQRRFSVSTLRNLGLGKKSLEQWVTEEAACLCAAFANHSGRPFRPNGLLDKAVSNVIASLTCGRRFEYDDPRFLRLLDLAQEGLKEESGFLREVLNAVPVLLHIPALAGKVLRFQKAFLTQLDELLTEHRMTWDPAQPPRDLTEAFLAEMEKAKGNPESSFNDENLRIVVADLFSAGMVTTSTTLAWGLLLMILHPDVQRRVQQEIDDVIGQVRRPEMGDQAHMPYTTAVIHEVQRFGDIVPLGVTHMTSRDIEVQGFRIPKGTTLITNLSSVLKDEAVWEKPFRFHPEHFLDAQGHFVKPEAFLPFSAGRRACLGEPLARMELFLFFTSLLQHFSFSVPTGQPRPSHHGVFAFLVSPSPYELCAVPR

OVCAR-8 = test: Growth inhibition of OVCAR-8 cells; type: cell-based; conditions: Homo sapiens, OVCAR-8, 96 h, read-out: IC50 ± SD OVCAR-8
Caco-2 cell permeability = type: in vitro ADME; conditions: human
U87MG cells [3] = test: ROS generation; type: cell-based, human; conditions: 400 mM H2O2, 1 h treatment

inhibition at 30 min, 1 µM (CYP2D6) | SMILES | IC50 [2] | also measured
 | N#CC(C#N)=NNc1cccc(Cl)c1 [CCCP, carbonyl cyanide m-chlorophenylhydrazone] |  | mitochondrial potential dissipation (U87MG cells [1]): about 50%
 | COc1ccc(/C=C\c2cc(OC)c(OC)c(OC)c2)cc1O [Compound 2, combretastatin A-4] | > 2.03 µM | 
< 50% | COc1cc(Sc2c(-n3ccnc3)[nH]c3ccccc23)cc(OC)c1OC [Compound 18, 2-(1H-Imidazol-1-yl)-3-((3,4,5-trimethoxyphenyl)thio)-1H-indole] |  | 
< 50% | COc1cc(Sc2c(-n3cncn3)[nH]c3ccccc23)cc(OC)c1OC [Compound 20, 2-(1H-1,2,4-Triazol-1-yl)-3-((3,4,5-trimethoxyphenyl)thio)-1H-indole] |  | 
< 50% | COc1cc(Sc2c(-c3cccnc3)[nH]c3ccccc23)cc(OC)c1OC [Compound 55, 2-(Pyridin-3-yl)-3-((3,4,5-trimethoxyphenyl)thio)-1H-indole] |  | 
< 50% | COc1cc(Sc2c(-c3ccncc3)[nH]c3ccccc23)cc(OC)c1OC [Compound 57, 2-(Pyridin-4-yl)-3-((3,4,5-trimethoxyphenyl)thio)-1H-indole] |  | 
 | CC(=O)O[C@H]1C(=O)[C@@]2(C)[C@H]([C@H](OC(=O)c3ccccc3)[C@]3(O)C[C@H](OC(=O)[C@H](O)[C@@H](NC(=O)c4ccccc4)c4ccccc4)C(C)=C1C3(C)C)[C@]1(OC(C)=O)CO[C@@H]1C[C@@H]2O [PTX, paclitaxel] | 0.023 µM | 
 | CC[C@]1(O)C[C@@H]2CN(CCc3c([nH]c4ccccc34)[C@@](C(=O)OC)(c3cc4c(cc3OC)N(C)[C@H]3[C@@](O)(C(=O)OC)[C@H](OC(C)=O)[C@]5(CC)C=CCN6CC[C@]43[C@@H]65)C2)C1 [VBL, vinblastine] | 0.017 µM | IC50 (OVCAR-8): 0.015 ± 0.007 µM
 | CN/C(=N/CCSCc1nc[nH]c1C)NC#N [cimetidine] |  | Papp A→B at 2 h, 10 μM (Caco-2 cell permeability): 0.11 ×10⁻⁶ cm/s; Papp B→A at 2 h, 10 μM (Caco-2 cell permeability): 2.13 ×10⁻⁶ cm/s
 | OO [hydrogen peroxide] |  | ROS, fluorescence intensity with respect to control (U87MG cells [3]): 208%
